# Laboratory results taken from patent US20060069084A1, “Methods of inhibiting kinases” (priority 2001, published 2006).
# How the values were obtained:
# Type in all cases: biochemical
# Conditions in all cases: inhibit 50% of activity at 50 μM
# [1] = molecular target: T1, TYK2 (Homo sapiens, UniProt P29597); experiment: TYK2 kinase domain capture-based ELISA kinase assay
# T1 construct: The kinase domain of humanTYK2 was amplified from A549 mRNA; His tag (from pBlueBacHis2A vector; nickel chelate purification) (N); made in house; host or cells: baculovirus; virus made in Sf9, large-scale expression in High Five insect cells
# T1 sequence (P29597 897-1176 limits assumed): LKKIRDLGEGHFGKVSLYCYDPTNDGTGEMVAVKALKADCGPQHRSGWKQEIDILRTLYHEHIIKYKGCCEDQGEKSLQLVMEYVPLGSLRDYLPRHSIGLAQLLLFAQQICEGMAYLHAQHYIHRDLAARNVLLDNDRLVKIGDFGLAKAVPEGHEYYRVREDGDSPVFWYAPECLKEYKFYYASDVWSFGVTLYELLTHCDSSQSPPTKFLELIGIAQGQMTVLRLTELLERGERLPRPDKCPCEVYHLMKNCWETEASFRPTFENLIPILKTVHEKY
# Procedure: (§1) For screening purposes, compounds were diluted in 96 well plates at a concentration of 50 μM or 20 μM. Plates were warmed at 37° C. for 30 minutes before assay.
# The kinase domain of humanTYK2 was amplified from A549 mRNA using the polymerase chain reaction with the following primers: […]
# TYK2 PCR products were cloned into pBlueBacHis2A (Invitrogen) via the EcoRI site. The recombinant TYK2 baculovirus produced was prepared for transfected into Sf9 insect cells.
# (§2) Baculovirus preparations from each of the JAK family members were infected into five litres of High Five cells (Invitrogen) grown in High Five serum free medium (Invitrogen) to a cell density of approximately 1-2×10^6 cells/ml. Cells are infected with virus at a MOI of 0.8-3.0. Cells were harvested and lysed. JAK kinase domains were purified by affinity chromatography on a Probond (Invitrogen) nickel chelate affinity column.
# (§3) The biotinylated substrate biotin-EGPWLEEEEEAYGWMDF-NH2 (SEQ ID NO:9) (final concentration 5 μM) was used as substrate, and tyrosine phosphorylation was quantitated following transfer to an avidin coated ELISA plate using peroxidase-linked anti-phospho-tyrosine antibody PY20.
# (§4) Inhibitors were added to the assays fifteen minutes prior to the addition of ATP. Inhibitors were added in aqueous DMSO, with DMSO concentrations never exceeding 1%.
# [2] = molecular target: T2, JAK2 (Homo sapiens, UniProt O60674); experiment: JAK2 kinase domain capture-based ELISA kinase assay
# T2 construct: The kinase domain of humanJAK2 was amplified from U937mRNA; His tag (from pFastBac HTc vector; nickel chelate purification) (N); made in house; host or cells: baculovirus; virus made in Sf9, large-scale expression in High Five insect cells
# Procedure: as §1
# The kinase domain of humanJAK2 was amplified from U937mRNA using the polymerase chain reaction with the following primers: […]
# JAK2 PCR products were cloned into the pFastBac HTc expression vector (Gibco) via the Sal I and Not I sites. The JAK2 plasmid was then transformed into competent DH10Bac cells (Gibco), and the recombinant baculovirus produced prepared for transfection into Sf9 insect cells.
# as §2, §3, §4
# [3] = molecular target: T3, JAK3 (Homo sapiens, UniProt P52333); experiment: JAK3 kinase domain capture-based ELISA kinase assay
# T3 construct: The kinase domain of humanJAK3 was amplified from U937mRNA; His tag (from pFastBac HTb vector; nickel chelate purification) (N); made in house; host or cells: baculovirus; virus made in Sf9, large-scale expression in High Five insect cells
# Procedure: as §1
# The kinase domain of humanJAK3 was amplified from U937mRNA using the polymerase chain reaction with the following primers: […]
# JAK3 PCR products were cloned into the pFastBac HTb expression vector (Gibco) via the Xho I and Kpn I sites. The JAK3 plasmid was then transformed into competent DH10Bac cells (Gibco), and the recombinant baculovirus produced prepared for transfection into Sf9 insect cells.
# as §2, §3, §4
# [4] = molecular target: T4, JAK1 (Homo sapiens, UniProt P23458); experiment: JAK1 kinase domain capture-based ELISA kinase assay
# T4 construct: The kinase domain of humanJAK1 was amplified from U937mRNA; His tag (from pFastBac HTb vector; nickel chelate purification) (N); made in house; host or cells: baculovirus; virus made in Sf9, large-scale expression in High Five insect cells
# Procedure: as §1
# The kinase domain of humanJAK1 was amplified from U937mRNA using the polymerase chain reaction with the following primers: […]
# JAK1 PCR products were cloned into the pFastBac HTb expression vector (Gibco) via the Xho I and Kpn I sites. The JAK1 plasmid was then transformed into competent DH10Bac cells (Gibco), and the recombinant baculovirus produced prepared for transfection into Sf9 insect cells.
# as §2, §3, §4
# T3 sequence (P52333 822-1111 limits assumed): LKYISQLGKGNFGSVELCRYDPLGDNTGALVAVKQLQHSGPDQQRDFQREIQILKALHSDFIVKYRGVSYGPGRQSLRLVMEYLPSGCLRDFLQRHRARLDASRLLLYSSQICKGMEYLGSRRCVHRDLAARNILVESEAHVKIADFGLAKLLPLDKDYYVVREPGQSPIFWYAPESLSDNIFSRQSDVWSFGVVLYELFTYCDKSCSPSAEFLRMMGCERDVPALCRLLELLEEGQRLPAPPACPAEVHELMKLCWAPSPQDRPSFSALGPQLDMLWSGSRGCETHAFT
# T4 sequence (P23458 875-1153 limits assumed): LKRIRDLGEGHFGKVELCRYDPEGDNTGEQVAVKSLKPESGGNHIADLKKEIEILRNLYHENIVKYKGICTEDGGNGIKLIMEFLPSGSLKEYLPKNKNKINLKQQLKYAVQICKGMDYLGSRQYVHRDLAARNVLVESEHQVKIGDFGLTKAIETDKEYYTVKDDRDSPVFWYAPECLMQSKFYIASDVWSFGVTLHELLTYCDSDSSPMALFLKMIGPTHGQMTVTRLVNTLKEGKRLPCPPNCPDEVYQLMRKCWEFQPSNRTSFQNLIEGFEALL
# T2 sequence (O60674 849-1124 limits assumed): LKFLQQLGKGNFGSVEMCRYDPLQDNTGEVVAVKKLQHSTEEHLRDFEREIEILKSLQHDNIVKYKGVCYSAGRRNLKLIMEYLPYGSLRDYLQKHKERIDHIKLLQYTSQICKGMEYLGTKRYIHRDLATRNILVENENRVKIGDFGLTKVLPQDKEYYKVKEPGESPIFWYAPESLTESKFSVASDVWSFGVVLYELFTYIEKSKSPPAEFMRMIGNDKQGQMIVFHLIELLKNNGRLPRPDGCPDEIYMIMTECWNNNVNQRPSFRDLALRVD
SMILES,IC50 ([1]; Table 5) [µM],IC50 ([2]; Table 5) [µM],IC50 ([3]; Table 5) [µM],IC50 ([4]; Table 5) [µM],IC50 ([1]; Table 6) [µM],IC50 ([2]; Table 6) [µM],IC50 ([3]; Table 6) [µM],IC50 ([4]; Table 6) [µM]
O=C(NCCO)c1cccc(-c2cn3ccnc3c(Nc3ccc(N4CCOCC4)cc3)n2)c1,< 50,< 50,< 50,< 50,,,,
COc1cccc(OC)c1-c1cn2ccnc2c(Nc2ccc(N3CCOCC3)cc2)n1,< 50,< 50,< 50,< 50,,,,
Fc1ccccc1-c1cn2ccnc2c(NCc2ccccn2)n1,< 50,< 50,< 50,< 50,,,,
COc1cc(-c2cn3ccnc3c(NCc3ccccn3)n2)cc(OC)c1OC,< 50,< 50,< 50,< 50,,,,
CC(=O)Nc1ccc(Nc2nc(-c3ccc(O)cc3)cn3ccnc23)cc1,< 50,< 50,< 50,< 50,,,,
CC(C)[C@H](CO)Nc1nc(-c2cccc(N)c2)cn2ccnc12,< 50,< 50,< 50,< 50,,,,
CC(=O)Nc1cccc(-c2cn3ccnc3c(N[C@@H](CO)C(C)C)n2)c1,< 50,< 50,< 50,< 50,,,,
CCCC/C=C/c1cn2ccnc2c(Nc2cccc(OCC(=O)N(C)C)c2)n1,< 50,< 50,< 50,< 50,,,,
COc1cc(-c2cn3ccnc3c(N[C@@H]3CCN(Cc4ccccc4)C3)n2)cc(OC)c1OC,< 50,< 50,< 50,< 50,,,,
COc1cc(-c2cn3ccnc3c(N3CCCN(C)CC3)n2)cc(OC)c1OC,< 50,< 50,< 50,< 50,,,,
FC(F)(F)c1cc(-c2cn3ccnc3c(NCC3CCOCC3)n2)cc(C(F)(F)F)c1,,,,,> 50,< 50,> 50,> 50
O=C(O)c1ccc(-c2cn3ccnc3c(N3CCN(c4ccccn4)CC3)n2)cc1,,,,,> 50,> 50,> 50,< 50
Cc1ccc(S(=O)(=O)Nc2ccc(Nc3nc(-c4cccc(C(=O)NCCN(C)C)c4)cn4ccnc34)cc2)cc1,,,,,> 50,< 50,> 50,< 50
CCN(CCO)c1ccc(Nc2nc(-c3cc(C(F)(F)F)cc(C(F)(F)F)c3)cn3ccnc23)cc1,,,,,> 50,< 50,> 50,> 50
Clc1ccccc1-c1cn2ccnc2c(NCc2ccccn2)n1,,,,,> 50,< 50,> 50,> 50
CCC(CO)Nc1nc(-c2ccco2)cn2ccnc12 (stereo not shown),,,,,> 50,< 50,< 50,< 50
O=C(O)c1ccc(-c2cn3ccnc3c(N3CCN(c4ccncc4)CC3)n2)cc1,,,,,> 50,< 50,> 50,> 50
CCN(CCO)c1ccc(Nc2nc(-c3c(OC)cccc3OC)cn3ccnc23)cc1,,,,,> 50,< 50,> 50,< 50
Cc1ccc(S(=O)(=O)Nc2ccc(Nc3nc(-c4cccc(N)c4)cn4ccnc34)cc2)cc1,,,,,< 50,< 50,> 50,< 50
CCCC/C=C/c1cn2ccnc2c(NCCc2cccnc2)n1,,,,,> 50,> 50,< 50,> 50
CCCC/C=C/c1cn2ccnc2c(NCc2ccncc2)n1,,,,,> 50,> 50,< 50,> 50
CC(C)[C@H](CO)Nc1nc(-c2ccc(C(=O)O)cc2)cn2ccnc12,,,,,> 50,< 50,< 50,> 50
c1cn2cc(-c3ccc4c(c3)OCO4)nc(NC3CC3)c2n1,,,,,< 50,> 50,> 50,< 50
CN1CCN(c2nc(-c3cccnc3)cn3ccnc23)CC1,,,,,> 50,> 50,> 50,< 50
COc1cc(-c2cn3ccnc3c(NCC3CC3)n2)ccc1O,,,,,> 50,> 50,> 50,< 50
Oc1cccc(-c2cn3ccnc3c(NC3CC3)n2)c1,,,,,< 50,< 50,> 50,< 50
CCNc1nc(-c2cccc(O)c2)cn2ccnc12,,,,,> 50,< 50,< 50,< 50
COc1cc(-c2cn3ccnc3c(NC3CC3)n2)ccc1O,,,,,> 50,< 50,< 50,< 50

# Results, then the compound that gave them:
IC50 ([1]; Table 5) [µM],IC50 ([2]; Table 5) [µM],IC50 ([3]; Table 5) [µM],IC50 ([4]; Table 5) [µM],IC50 ([1]; Table 6) [µM],IC50 ([2]; Table 6) [µM],IC50 ([3]; Table 6) [µM],IC50 ([4]; Table 6) [µM],SMILES
< 50,< 50,< 50,< 50,,,,,COc1ccc(Nc2nc(-c3ccc4ccccc4c3)cn3ccnc23)cn1
< 50,< 50,< 50,< 50,,,,,Cc1ccc(S(=O)(=O)Nc2ccc(Nc3nc(-c4ccccc4)cn4ccnc34)cc2)cc1
< 50,< 50,< 50,< 50,,,,,c1ccc(CNc2nc(Nc3cccc4[nH]ccc34)cn3ccnc23)cc1
< 50,< 50,< 50,< 50,,,,,c1ccc2c(-c3cn4ccnc4c(Nc4ccc5cn[nH]c5c4)n3)cccc2c1
< 50,< 50,< 50,< 50,,,,,c1ccc(-c2cc(Nc3ccc4[nH]ccc4c3)c3nccn3c2)cc1
,,,,> 50,> 50,> 50,< 50,c1ccc(-c2cn3ccnc3c(NCc3ccncc3)n2)cc1
,,,,< 50,< 50,< 50,< 50,O=C(O)c1cccc(-c2cn3ccnc3c(Nc3ccc(N4CCOCC4)cc3)n2)c1
,,,,< 50,< 50,> 50,< 50,CC(=O)Nc1ccc(Nc2nc(-c3ccc4ccccc4c3)cn3ccnc23)cc1
,,,,< 50,< 50,< 50,< 50,O=C(O)c1ccc(-c2cn3ccnc3c(Nc3ccc(Cl)cc3)n2)cc1
,,,,< 50,< 50,< 50,< 50,CC(=O)Nc1ccc(Nc2nc(-c3ccccc3F)cn3ccnc23)cc1
,,,,< 50,< 50,> 50,< 50,c1ccc(Nc2nc(-c3ccc4c(c3)OCO4)cn3ccnc23)cc1
,,,,> 50,< 50,> 50,< 50,Oc1ccc(-c2cn3ccnc3c(Nc3ccccc3)n2)cc1
,,,,< 50,< 50,< 50,< 50,CC(=O)Nc1cccc(-c2cn3ccnc3c(Nc3ccccc3)n2)c1
,,,,< 50,< 50,< 50,< 50,CC(=O)c1ccc(-c2cn3ccnc3c(Nc3ccccc3)n2)s1
,,,,< 50,< 50,< 50,< 50,c1ccc(Nc2nc(-c3cccnc3)cn3ccnc23)cc1
